Assay results published in patent US20230150944A1, “PESTICIDALLY ACTIVE HETEROCYCLIC DERIVATIVES WITH SULFOXIMINE CONTAINING SUBSTITUENTS” (SYNGENTA CROP PROTECTION AG, priority 2018, published 2023).

Key:
Type in all cases: in vivo
[1] = system: Euschistus heros (Neotropical Brown Stink Bug); assay: Example B3: Activity on Euschistus heros, soybean leaf spray; conditions: 120 h, application rate of 200 ppm, N2 nymphs on soybean leaves, 5 days after infestation, read-out: effect in at least one of the two categories (mortality or growth inhibition)
Method: Example B3: Activity on Euschistus heros (Neotropical Brown Stink Bug)
Soybean leaves on agar in 24-well microtiter plates were sprayed with aqueous test solutions prepared from 10′000 ppm DMSO stock solutions. After drying the leaves were infested with N2 nymphs. The samples were assessed for mortality and growth inhibition in comparison to untreated samples 5 days after infestation.

[2] = system: Myzus persicae (Green Peach Aphid); assay: Example B4: Activity on Myzus persicae, sunflower leaf disc spray; conditions: foliar, 144 h, application rate of 200 ppm, mixed-age aphids on sprayed sunflower leaf discs, 6 days after infestation
Method: Example B4: Activity on Myzus persicae (Green Peach Aphid)
Sunflower leaf discs were placed onto agar in a 24-well microtiter plate and sprayed with aqueous test solutions prepared from 10′000 ppm DMSO stock solutions. After drying, the leaf discs were infested with an aphid population of mixed ages. The samples were assessed for mortality 6 days after infestation.

[3] = system: Myzus persicae (Green Peach Aphid); assay: Example B5: Activity on Myzus persicae, pea seedling roots in test solution; conditions: 144 h, test rate of 24 ppm, roots of infested pea seedlings placed into test solution, 6 days
Method: Example B5: Activity on Myzus persicae (Green Peach Aphid)
Roots of pea seedlings infested with an aphid population of mixed ages were placed directly into aqueous test solutions prepared from 10′000 DMSO stock solutions. The samples were assessed for mortality 6 days after placing seedlings into test solutions.

[4] = system: Bemisia tabaci (Cotton White Fly); assay: Example B1: Activity on Bemisia tabaci, cotton leaf disc spray; conditions: foliar, 144 h, application rate of 200 ppm, adult white flies on cotton leaf discs, 6 days after incubation
Method: Example B1: Activity on Bemisia tabaci (Cotton White Fly)
Cotton leaf discs were placed on agar in 24-well microtiter plates and sprayed with aqueous test solutions prepared from 10′000 ppm DMSO stock solutions. After drying the leaf discs were infested with adult white flies. The samples were checked for mortality 6 days after incubation.

[5] = system: Plutella xylostella (Diamond Back Moth); assay: Example B6: Activity on Plutella xylostella, artificial diet, L2 larvae; conditions: 120 h, application rate of 200 ppm, 5 days after infestation, read-out: effect in at least one of the two categories (mortality or growth inhibition)
Method: Example B6: Activity on Plutella xylostella (Diamond Back Moth)
(§1) 24-well microtiter plates with artificial diet were treated with aqueous test solutions prepared from 10′000 ppm DMSO stock solutions by pipetting. After drying, the plates were infested with L2 larvae (10 to 15 per well). The samples were assessed for mortality and growth inhibition in comparison to untreated samples 5 days after infestation.

[6] = system: Plutella xylostella (Diamond Back Moth); assay: Example B11: Activity on Plutella xylostella, artificial diet, eggs; conditions: 192 h, application rate of 200 ppm, 8 days after infestation, read-out: effect in at least one of the two categories (mortality or growth inhibition)
Method: Example B11: Activity on Plutella xylostella (Diamond Back Moth)
as §1, with “drying, Plutella eggs were pipetted through a plastic stencil onto a gel blotting paper and” for “drying,”, “plate was closed” for “plates were infested”, “it.” for “L2 larvae (10 to 15 per well).”, “8” for “5”

[7] = system: Diabrotica balteata (Corn Root Worm); assay: Example B2: Activity on Diabrotica balteata, maize sprout spray; conditions: 96 h, application rate of 200 ppm, L2 larvae on maize sprouts, 4 days after infestation, read-out: effect in at least one of the two categories (mortality or growth inhibition)
Method: Example B2: Activity on Diabrotica balteata (Corn Root Worm)
as §1, with “Maize sprouts placed onto an agar layer in 24-well” for “24-well”, “plates” for “plates with artificial diet”, “spraying.” for “pipetting.”, “(6” for “(10”, “10” for “15”, “4” for “5”

[8] = system: Spodoptera littoralis (Egyptian Cotton Leaf Worm); assay: Example B7: Activity on Spodoptera littoralis, cotton leaf disc spray; conditions: foliar, 72 h, application rate of 200 ppm, L1 larvae on cotton leaf discs, 3 days after infestation, read-out: control (mortality, anti-feeding effect or growth inhibition)
Method: Example B7: Activity on Spodoptera littoralis (Egyptian Cotton Leaf Worm)
Cotton leaf discs were placed onto agar in 24-well microtiter plates and sprayed with aqueous test solutions prepared from 10′000 ppm DMSO stock solutions. After drying the leaf discs were infested with five L1 larvae. The samples were assessed for mortality, anti-feeding effect, and growth inhibition in comparison to untreated samples 3 days after infestation. Control of Spodoptera littoralis by a test sample is given when at least one of the categories mortality, anti-feedant effect, and growth inhibition is higher than the untreated sample.

CCS(=N)(=O)c1cc(C2(C#N)CC2)ccc1-c1nc2cc(SC(F)(F)F)ncc2n1C (stereo not drawn) [Example P9, 1-[3-(ethylsulfonimidoyl)-4-[3-methyl-6-(trifluoromethylsulfanyl)imidazo[4,5-c]pyridin-2-yl]phenyl]cyclopropanecarbonitrile]
≥ 80%: percent effect (mortality or growth inhibition) at 200 ppm [1] | mortality at 200 ppm [2] | mortality at 24 ppm [3]

CCS(=N)(=O)c1cc(C2(C#N)CC2)cnc1-c1nc2cc(C(F)(F)F)cnc2n1C (stereo not drawn) [Example P6, 1-[5-(ethylsulfonimidoyl)-6-[3-methyl-6-(trifluoromethyl)imidazo[4,5-b]pyridin-2-yl]-3-pyridyl]cyclopropanecarbonitrile]
≥ 80%: mortality at 200 ppm [4] | percent effect (mortality or growth inhibition) at 200 ppm [5] | mortality at 200 ppm [2] | mortality at 24 ppm [3]

CCS(=N)(=O)c1cc(C2CC2)cnc1-c1nc2cc(S(=O)(=O)C(F)(F)F)ccc2o1 (stereo not drawn) [Example P19, [5-cyclopropyl-2-[5-(trifluoromethylsulfonyl)-l ,3-benzoxazol-2-yl]-3-pyridyl]-ethyl-imino-oxo-λ^6-sulfane]
≥ 80%: percent effect (mortality or growth inhibition) at 200 ppm [6]

CCS(=N)(=O)c1cc(C2(C#N)CC2)cnc1-c1nc2cc(C(F)(F)F)nnc2n1C (stereo not drawn) [Example P10, 1-[5-(ethylsulfonimidoyl)-6-[7-methyl-3-(trifluoromethyl)imidazo[4,5-c]pyridazin-6-yl]-3-pyridyl]cyclopropanecarbonitrile]
≥ 80%: percent effect (mortality or growth inhibition) at 200 ppm [1] | mortality at 200 ppm [4] | percent effect (mortality or growth inhibition) at 200 ppm [7] | mortality at 200 ppm [2] | mortality at 24 ppm [3]

CCS(=N)(=O)c1cc(C2CC2)cnc1-n1cc2cnc(C(F)(F)F)cc2n1 (stereo not drawn) [Example P7, [5-cyclopropyl-2-[6-(trifluoromethyl)pyrazolo[4,3-c]pyridin-2-yl]-3-pyridyl]-ethyl-imino-oxo-λ^6-sulfane]
≥ 80%: percent effect (mortality or growth inhibition) at 200 ppm [7] | percent effect (mortality or growth inhibition) at 200 ppm [5] | percent control (mortality, anti-feedant effect or growth inhibition) at 200 ppm [8] | mortality at 200 ppm [2] | mortality at 24 ppm [3]

CCS(=N)(=O)c1cc(C2CC2)cnc1-c1nc2cc(C(F)(F)F)ncc2n1C (stereo not drawn) [Example P5, [5-cyclopropyl-2-[3-methyl-6-(trifluoromethyl)imidazo[4,5-c]pyridin-2-yl]-3-pyridyl]-ethyl-imino-oxo-λ^6-sulfane]
≥ 80%: percent effect (mortality or growth inhibition) at 200 ppm [7] | percent effect (mortality or growth inhibition) at 200 ppm [5] | percent control (mortality, anti-feedant effect or growth inhibition) at 200 ppm [8] | mortality at 200 ppm [2] | mortality at 24 ppm [3]

CCS(=N)(=O)c1cc(C2(C#N)CC2)cnc1-n1cc2cnc(C(F)(F)F)cc2n1 (stereo not drawn) [Example P17, 1-[5-(ethylsulfonimidoyl)-6-[6-(trifluoromethyl)pyrazolo[4,3-c]pyridin-2-yl]-3-pyridyl] cyclopropanecarbonitrile]
≥ 80%: percent effect (mortality or growth inhibition) at 200 ppm [6] | mortality at 200 ppm [2] | mortality at 24 ppm [3]

CCS(=N)(=O)c1cc(C2(C#N)CC2)cnc1-c1nc2cc(C(F)(F)F)n(OC)c(=O)c2n1C (stereo not drawn) [Example P8, 1-[5-(ethylsulfonimidoyl)-6-[5-methoxy-3-methyl-4-oxo-6-(trifluoromethyl)imidazo[4,5-c]pyridin-2-yl]-3-pyridyl]cyclopropanecarbonitrile]
≥ 80%: percent effect (mortality or growth inhibition) at 200 ppm [1] | mortality at 200 ppm [4] | percent effect (mortality or growth inhibition) at 200 ppm [7] | percent effect (mortality or growth inhibition) at 200 ppm [5] | percent control (mortality, anti-feedant effect or growth inhibition) at 200 ppm [8] | mortality at 200 ppm [2] | mortality at 24 ppm [3]

CCS(=N)(=O)c1cc(C2(C#N)CC2)ccc1-c1nc2cc(C(F)(F)F)ncc2n1C (stereo not drawn) [Example P13, 1-[3-(ethylsulfonimidoyl)-4-[3-methyl-6-(trifluoromethyl)imidazo[4,5-c]pyridin-2-yl]phenyl]cyclopropanecarbonitrile]
≥ 80%: percent effect (mortality or growth inhibition) at 200 ppm [1] | mortality at 200 ppm [4] | percent effect (mortality or growth inhibition) at 200 ppm [7] | mortality at 200 ppm [2] | mortality at 24 ppm [3]

CCn1c(C(F)(F)F)cc2nc(-c3ncc(C4(C#N)CC4)cc3S(=N)(=O)CC)n(C)c2c1=O (stereo not drawn) [Example P14, 1-[6-[5-ethyl-3-methyl-4-oxo-6-(trifluoromethyl)imidazo[4,5-c]pyridin-2-yl]-5-(ethylsulfonimidoyl)-3-pyridyl] cyclopropanecarbonitrile]
≥ 80%: percent effect (mortality or growth inhibition) at 200 ppm [1] | mortality at 200 ppm [4] | percent effect (mortality or growth inhibition) at 200 ppm [7] | percent effect (mortality or growth inhibition) at 200 ppm [5] | percent control (mortality, anti-feedant effect or growth inhibition) at 200 ppm [8] | mortality at 200 ppm [2] | mortality at 24 ppm [3]

CCS(=N)(=O)c1cc(C2(C#N)CC2)ccc1-c1nc2cc(C(F)(F)F)cnc2n1C (stereo not drawn) [Example P15, 1-[3-(ethylsulfonimidoyl)-4-[3-methyl-6-(trifluoromethyl)imidazo[4,5-b]pyridin-2-yl]phenyl]cyclopropanecarbonitrile]
≥ 80%: percent effect (mortality or growth inhibition) at 200 ppm [1] | mortality at 200 ppm [4] | percent effect (mortality or growth inhibition) at 200 ppm [5] | percent control (mortality, anti-feedant effect or growth inhibition) at 200 ppm [8] | mortality at 200 ppm [2] | mortality at 24 ppm [3]

CCS(=N)(=O)c1cc(C2CC2)cnc1-c1nc2cc(C(F)(F)F)nnc2n1C (stereo not drawn) [Example P11, [5-cyclopropyl-2-[7-methyl-3-(trifluoromethyl)imidazo[4,5-c]pyridazin-6-yl]-3-pyridyl]-ethyl-imino-oxo-λ^6-sulfane]
≥ 80%: percent effect (mortality or growth inhibition) at 200 ppm [7] | percent effect (mortality or growth inhibition) at 200 ppm [5] | percent control (mortality, anti-feedant effect or growth inhibition) at 200 ppm [8] | mortality at 200 ppm [2] | mortality at 24 ppm [3]

CCS(=N)(=O)c1cc(C2CC2)cnc1-c1nc2cc(SC(F)(F)F)ncc2n1C (stereo not drawn) [Example P4, [5-cyclopropyl-2-[3-methyl-6-(trifluoromethylsulfanyl)imidazo[4,5-c]pyridin-2-yl]-3-pyridyl]-ethyl-imino-oxo-λ^6-sulfane]
≥ 80%: percent effect (mortality or growth inhibition) at 200 ppm [1] | mortality at 200 ppm [4] | percent effect (mortality or growth inhibition) at 200 ppm [7] | percent effect (mortality or growth inhibition) at 200 ppm [5] | percent control (mortality, anti-feedant effect or growth inhibition) at 200 ppm [8] | mortality at 200 ppm [2] | mortality at 24 ppm [3]

CCS(=N)(=O)c1cc(C2CC2)cnc1-c1nc2cc(SC(F)(F)F)ccc2o1 (stereo not drawn) [Example P18, [5-cyclopropyl-2-[5-(trifluoromethylsulfanyl)-1,3-benzoxazol-2-yl]-3-pyridyl]-ethyl-imino-oxo-λ^6-sulfane]
≥ 80%: percent effect (mortality or growth inhibition) at 200 ppm [6]

CCS(=N)(=O)c1cc(C2CC2)cnc1-c1nc2cc(C(F)(F)F)cnc2n1C (stereo not drawn) [Example P12, [5-cyclopropyl-2-[3-methyl-6-(trifluoromethyl)imidazo[4,5-b]pyridin-2-yl]-3-pyridyl]-ethyl-imino-oxo-λ^6-sulfane]
≥ 80%: percent effect (mortality or growth inhibition) at 200 ppm [7] | percent effect (mortality or growth inhibition) at 200 ppm [5] | percent control (mortality, anti-feedant effect or growth inhibition) at 200 ppm [8] | mortality at 200 ppm [2] | mortality at 24 ppm [3]
